Test results: patent US9388172B2, “Substituted carbamate compounds” (Hoffmann-La Roche Inc., priority 2012, dated 2016)
Where a name gives a salt, the structure may show the parent alone.

What follows are molecules tested against T1, hTRPA1 (Homo sapiens, UniProt O75762) (assay: ChanTest hTRPA1-CHO calcium flux dose response assay (FLIPR, cinnamaldehyde agonist)). Details: CHO-K1 Tet-On hTRPA1 cells, 100 uM cinnamaldehyde agonist, 30 min compound preincubation.
T1 construct: host or cells: CHO-K1 Tet-On HOMSA TRPA1 Clone 20 (Chinese Hamster Ovary cells, inducible expression)
T1 sequence (O75762 whole entry): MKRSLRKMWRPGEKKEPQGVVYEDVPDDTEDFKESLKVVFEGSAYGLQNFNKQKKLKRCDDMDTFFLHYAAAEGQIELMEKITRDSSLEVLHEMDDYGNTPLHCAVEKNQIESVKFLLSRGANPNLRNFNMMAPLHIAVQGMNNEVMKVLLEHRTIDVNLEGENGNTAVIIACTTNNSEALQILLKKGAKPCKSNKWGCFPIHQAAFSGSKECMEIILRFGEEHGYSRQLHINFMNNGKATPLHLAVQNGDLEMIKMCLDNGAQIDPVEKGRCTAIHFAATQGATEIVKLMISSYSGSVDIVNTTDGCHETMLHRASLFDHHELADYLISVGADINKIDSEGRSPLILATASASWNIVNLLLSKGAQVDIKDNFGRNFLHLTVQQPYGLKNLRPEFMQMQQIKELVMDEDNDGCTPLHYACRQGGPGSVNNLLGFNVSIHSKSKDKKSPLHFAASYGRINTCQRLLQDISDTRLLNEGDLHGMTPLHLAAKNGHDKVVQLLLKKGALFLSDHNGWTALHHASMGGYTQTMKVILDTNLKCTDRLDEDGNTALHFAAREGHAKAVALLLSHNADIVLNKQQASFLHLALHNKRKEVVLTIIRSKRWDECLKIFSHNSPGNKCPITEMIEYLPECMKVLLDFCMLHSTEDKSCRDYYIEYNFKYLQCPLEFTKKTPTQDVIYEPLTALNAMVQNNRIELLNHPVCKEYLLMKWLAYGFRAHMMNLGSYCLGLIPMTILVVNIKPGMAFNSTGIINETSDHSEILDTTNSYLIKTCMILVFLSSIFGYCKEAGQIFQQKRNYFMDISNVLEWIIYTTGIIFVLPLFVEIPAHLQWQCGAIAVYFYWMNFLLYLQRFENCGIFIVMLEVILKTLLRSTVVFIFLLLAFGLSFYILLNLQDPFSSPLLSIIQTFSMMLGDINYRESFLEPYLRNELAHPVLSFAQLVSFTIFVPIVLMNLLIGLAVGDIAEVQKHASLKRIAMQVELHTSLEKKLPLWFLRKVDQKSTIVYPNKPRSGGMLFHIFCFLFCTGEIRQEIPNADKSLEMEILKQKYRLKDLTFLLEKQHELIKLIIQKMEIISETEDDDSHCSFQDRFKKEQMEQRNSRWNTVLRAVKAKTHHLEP
Assay type: cell-based
Procedure: IC50 Determination of Exemplified Compounds Dose Response Assay: ChanTest hTRPA1-CHO Stably Transfected Cell Line
CHO-K1 Tet-On HOMSA TRPA1 Clone 20
0.40 mg/ml Zeocin • The cell line doubling rate was ˜15 hours. […] Experiments were run at 24 hours post induction.
Plating Conditions CHOK1/TRPA1 Cells: • Harvested cells with 0.025% trypsin/EDTA. • Resuspended cells in growth media without selection antibiotics. • Measured cell density and diluted to 2.4×10^5 cells/ml in media containing 1 ug/ml Doxycycline Plate 25 ul/well into 384 well black/clear tissue culture-treated plates. • Incubated overnight at 37° C.
• Replacement Buffer: Hank's Balanced Salt Solution, 20 mM HEPES along with 0.005% BSA and 2× Probenecid • Dye Loading Buffer: Cal-3 NW Calcium dye was prepared by dissolving the contents of one vial with 500 ml Hank's Balanced Salt Solution containing 20 mM HEPES.
Control Compounds for CHOK1/TRPA1 Cells: • AP-18, stock 10 mM, prepare 3.5× compound dilution in a Compound Buffer (HBSS/20 mM HEPES/0.005% BSA)−final concentration 10 uM.
Preparation of Cinnamaldehyde (Agonist Addition): • FW=132.16 • Specific gravity=1.046 gm/cc • 1.32 gm/1.046 gm/cc=1.26 ml of stock • Add 1.74 ml DMSO=3.3 M stock • Working solution 4.5× (final 100 uM in Compound Buffer: HBSS/20 mM HEPES/0.005% BSA)
Compounds dilutions were prepared from 5 or 10 mM stock (100% DMSO): • Adjustments of volumes and concentrations were made at time of titration to reflect desired final assay concentrations. • Compounds were tested at either 20 μM three folds dilution 11 steps out or 30 μM two folds dilution 11 steps out. • 3 μl of diluted compound were transferred into Weidmann 384-well plate in duplicates side-by-side. • Compound plates were resuspended with 100 ul of HBSS/20 mM HEPES/0.005% BSA buffer (Compound Buffer): • column 1A-H: buffer/DMSO (bk) • column 2A-H: AP-18 (control antagonist for CHOK1 TRPA1 cells) • column 1I-P: ATP (control for CHOK1 teton cells) • column 2I-P: 2APB (control antagonist for CHOK1/TRPM8 cells).
Growth media was removed from the cell plates (20 ul) and 20 ul of the Replacement Buffer was added followed by addition of 25 ul of diluted dye. All three steps were performed using a Plate Washer BioTek 407. The plates were then incubated for 30′ at RT.
After incubation, both the cell and compound plates were brought to the FLIPR and 20 ul of the diluted compounds/antagonist/bk were transferred to the cell plates by the FLIPR. Plates were then incubated for 30′ at room temperature. After 30′ incubation, plates were returned to the FLIPR and 20 ul of 4.5× Cinnamaldehyde was added to the cell plates. During the compound addition as well as agonist addition, fluorescence readings were taken simultaneously from all 384 wells of the cell plate every 1.5 seconds. Five readings were taken to establish a stable baseline, then 20 ul of sample was rapidly (30 ul/sec) and simultaneously added to each well of the cell plate. The fluorescence was continuously monitored before, during and after sample/agonist addition for a total elapsed time of 100 seconds (compound addition) and 120 seconds (agonist addition). Responses (increase in peak fluorescence) in each well following agonist addition was determined. The initial fluorescence reading from each well, prior to ligand stimulation, was used a zero baseline value for the data from that well.

SMILES	IC50 [nM]
FC(F)(F)c1cccc(C2CCCN(CC(Cc3nc(-c4ccc(Cl)cc4)no3)C(F)(F)F)C2)c1 (mixture of isomers) [Example 14, 1-{2-[3-(4-Chlorophenyl)-[1,2,4]oxadiazol-5-ylmethyl]-3,3,3-trifluoro-propyl}-3-(3-trifluoromethyl-phenyl)-piperidine hydrochloride]	2660
FC(F)(F)c1cccc(C2CCCN(CC(Cc3ncc(-c4ccc(Cl)cc4)[nH]3)C(F)(F)F)C2)c1 (stereo not drawn) [Example 2, 1-{2-[5-(4-Chlorophenyl)-1H-imidazol-2-ylmethyl]-3,3,3-trifluoro-propyl}-3-(3-trifluoromethyl-phenyl)piperidine hydrochloride]	3700
FC(F)(F)c1cccc(C2CCCN(CC(Cc3nnc(-c4ccc(Cl)cc4)o3)C(F)(F)F)C2)c1 (stereo not drawn) [Example 3, 1-{2-[5-(4-Chloro-phenyl)-[1,3,4]oxadiazol-2-ylmethyl]-3,3,3-trifluoro-propyl}-3-(3-trifluoromethyl-phenyl)-piperidine hydrochloride]	702
FC(F)(F)c1cccc(C2CCCN(CC(Cc3nc4ccc(Cl)cc4o3)C(F)(F)F)C2)c1 (stereo not drawn) [Example 4, 6-Chloro-2-{3,3,3-trifluoro-2-[3-(3-trifluoromethyl-phenyl)-piperidin-1-ylmethyl]-propyl}-benzooxazole hydrochloride]	12300
FC(F)(F)c1cccc(C2CCCN(CC(Cc3ncc(-c4ccccc4)[nH]3)C(F)(F)F)C2)c1 (stereo not drawn) [Example 5, 3-(3-Trifluoromethyl-phenyl)-1-[3,3,3-trifluoro-2-(5-phenyl-1H-imidazol-2-ylmethyl)-propyl]-piperidine hydrochloride]	11200
FC(F)(F)c1cccc(C2CCCN(CC(Cc3ncc(-c4cccc(Cl)c4)[nH]3)C(F)(F)F)C2)c1 (stereo not drawn) [Example 6, 1-{2-[5-(3-Chlorophenyl)-1H-imidazol-2-ylmethyl]-3,3,3-trifluoro-propyl}-3-(3-trifluoromethyl-phenyl)piperidine hydrochloride]	2260
Fc1ccc(-c2nnc(CC(CN3CCCC(c4cccc(C(F)(F)F)c4)C3)C(F)(F)F)o2)cc1 (stereo not drawn) [Example 8, 1-{3,3,3-Trifluoro-2-[5-(4-fluorophenyl)-[1,3,4]oxadiazol-2-ylmethyl]-propyl}-3-(3-trifluoromethyl-phenyl)-piperidine hydrochloride]	116
FC(F)(F)c1cccc(C2CCCN(CC(Cc3nnc(-c4cccc(Cl)c4)o3)C(F)(F)F)C2)c1 (stereo not drawn) [Example 9, 1-{2-[5-(3-Chloro-phenyl)-[1,3,4]oxadiazol-2-ylmethyl]-3,3,3-trifluoro-propyl}-3-(3-trifluoromethyl-phenyl)-piperidine hydrochloride]	9110
FC(F)(F)c1cccc(C2CCCN(CC(Cc3ncc(-c4ccc(Cl)cc4)o3)C(F)(F)F)C2)c1 (stereo not drawn) [Example 13, 1-{2-[5-(4-Chloro-phenyl)-oxazol-2-ylmethyl]-3,3,3-trifluoro-propyl}-3-(3-trifluoromethyl-phenyl)-piperidine hydrochloride]	7270
Fc1ccc(-c2nc(CC(CN3CCCC(c4cccc(C(F)(F)F)c4)C3)C(F)(F)F)no2)cc1 (stereo not drawn) [Example 15, 1-{3,3,3-Trifluoro-2-[5-(4-fluoro-phenyl)-[1,2,4]oxadiazol-3-ylmethyl]-propyl}-3-(3-trifluoromethyl-phenyl)-piperidine hydrochloride]	318
FC(F)(F)c1cccc(C2CN(CC(Cc3nnc(-c4ccc(Cl)cc4)o3)C(F)(F)F)CCO2)c1 (stereo not drawn) [Example 16, 4-{2-[5-(4-Chlorophenyl)-[1,3,4]oxadiazol-2-ylmethyl]-3,3,3-trifluoropropyl}-2-(3-trifluoromethyl-phenyl)-morpholine hydrochloride]	228

Further lines, results first:

IC50 [nM]	SMILES
6720	FC(F)(F)c1cccc(C2CCCN(CC(Cc3nc4cc(Cl)ccc4[nH]3)C(F)(F)F)C2)c1 (stereo not drawn) [Example 1, 5-Chloro-2-{3,3,3-trifluoro-2-[3-(3-trifluoromethyl-phenyl)-piperidin-1-ylmethyl]-propyl}-1H-benzoimidazole hydrochloride]
6050	Fc1ccc(-c2cnc(CC(CN3CCCC(c4cccc(C(F)(F)F)c4)C3)C(F)(F)F)[nH]2)cc1 (stereo not drawn) [Example 7, 1-{3,3,3-Trifluoro-2-[5-(4-fluoro-phenyl)-1H-imidazol-2-ylmethyl]-propyl}-3-(3-trifluoromethyl-phenyl)-piperidine hydrochloride]
2400	Cc1ccc(-c2nnc(CC(CN3CCCC(c4cccc(C(F)(F)F)c4)C3)C(F)(F)F)o2)cn1 (stereo not drawn) [Example 10, 2-Methyl-5-(5-{3,3,3-trifluoro-2-[3-(3-trifluoromethyl-phenyl)-piperidin-1-ylmethyl]-propyl}-[1,3,4]oxadiazol-2-yl)-pyridine]
30000	FC(F)(F)c1cccc(C2CCCN(CC(Cc3nnc(-c4ccc(Cl)cn4)o3)C(F)(F)F)C2)c1 (stereo not drawn) [Example 11, 5-Chloro-2-(5-{3,3,3-trifluoro-2-[3-(3-trifluoromethyl-phenyl)-piperidin-1-ylmethyl]-propyl}-[1,3,4]oxadiazol-2-yl)-pyridine hydrochloride]
112	Fc1ccc(-c2nnc(CC(CN3CCOC(c4cccc(C(F)(F)F)c4)C3)C(F)(F)F)o2)cc1 (stereo not drawn) [Example 12, 4-{3,3,3-Trifluoro-2-[5-(4-fluoro-phenyl)-[1,3,4]oxadiazol-2-ylmethyl]-propyl}-2-(3-trifluoromethyl-phenyl)-morpholine hydrochloride]
62.1	Fc1ccc(-c2nnc(CC(CN3CCOC(c4ccc(C(F)(F)F)cc4)C3)C(F)(F)F)o2)cc1 (stereo not drawn) [Example 17, 4-{3,3,3-Trifluoro-2-[5-(4-fluoro-phenyl)-[1,3,4]oxadiazol-2-ylmethyl]-propyl}-2-(4-trifluoromethyl-phenyl)-morpholine hydrochloride]
267	FC(F)(F)c1ccc(C2CN(CC(Cc3nnc(-c4ccc(Cl)cc4)o3)C(F)(F)F)CCO2)cc1 (stereo not drawn) [Example 18, 4-{2-[5-(4-Chloro-phenyl)-[1,3,4]oxadiazol-2-ylmethyl]-3,3,3-trifluoro-propyl}-2-(4-trifluoromethyl-phenyl)-morpholinehydrochloride]
